{"source": "ChEMBL document CHEMBL3885881", "about": "“DrugMatrix”", "organism": "Rattus norvegicus", "test": "DrugMatrix - Regimen: Daily Repeat", "type": "toxicity, organism-based, Sprague-Dawley", "set-up": "regimen Daily Repeat, gender Male, age 6-8 weeks", "details": "in vivo, po, 17 mg/kg, route oral GAVAGE, dose level High, vehicle .5 % CMC; for ABSOLUTE BASOPHIL / ABSOLUTE EOSINOPHIL / ABSOLUTE LYMPHOCYTE / ABSOLUTE MONOCYTE / ABSOLUTE SEGMENTED NEUTROPHIL / BASOPHIL / EOSINOPHIL / ERYTHROCYTE COUNT / HEMATOCRIT / HEMOGLOBIN / LEUKOCYTE COUNT / LYMPHOCYTE / MEAN CORPUSCULAR HEMOGLOBIN / MEAN CORPUSCULAR HEMOGLOBIN CONCENTRATION / MONOCYTE / NEUTROPHIL / NUCLEATED RED BLOOD CELLS / PLATELET COUNT: tissue Blood", "key": {"[1]": {"details": "72 h, tissue Plasma, time 3 day"}, "[2]": {"details": "96 h, tissue Plasma, time 4 day"}}}
{"smiles": "O=C(Nc1c(Cl)cncc1Cl)c1ccc(OC(F)F)c(OCC2CC2)c1", "note": "[ROFLUMILAST]", "values": [{"measurement": "ABSOLUTE BASOPHIL", "setting": "72 h, time 3 day", "result": 0, "unit": "CELLS/uL"}, {"measurement": "ABSOLUTE EOSINOPHIL", "setting": "72 h, time 3 day", "result": 460.33, "unit": "CELLS/uL"}, {"measurement": "ABSOLUTE LYMPHOCYTE", "setting": "72 h, time 3 day", "result": 8656.33, "unit": "CELLS/uL"}, {"measurement": "ABSOLUTE MONOCYTE", "setting": "72 h, time 3 day", "result": 1347.33, "unit": "CELLS/uL"}, {"measurement": "ABSOLUTE SEGMENTED NEUTROPHIL", "setting": "72 h, time 3 day", "result": 10002.67, "unit": "CELLS/uL"}, {"measurement": "BASOPHIL", "setting": "72 h, time 3 day", "result": 0, "unit": "%"}, {"measurement": "EOSINOPHIL", "setting": "72 h, time 3 day", "result": 2.33, "unit": "%"}, {"measurement": "ERYTHROCYTE COUNT", "setting": "72 h, time 3 day", "result": 6.23, "unit": "x10E6/uL"}, {"measurement": "HEMATOCRIT", "setting": "72 h, time 3 day", "result": 37.23, "unit": "%"}, {"measurement": "HEMOGLOBIN", "setting": "72 h, time 3 day", "result": 13.5, "unit": "G/DL"}, {"measurement": "LEUKOCYTE COUNT", "setting": "72 h, time 3 day", "result": 20.47, "unit": "x10E3/uL"}, {"measurement": "LYMPHOCYTE", "setting": "72 h, time 3 day", "result": 42.67, "unit": "%"}, {"measurement": "MEAN CORPUSCULAR HEMOGLOBIN", "setting": "72 h, time 3 day", "result": 21.7, "unit": "pg"}, {"measurement": "MEAN CORPUSCULAR HEMOGLOBIN CONCENTRATION", "setting": "72 h, time 3 day", "result": 36.27, "unit": "G/DL"}, {"measurement": "MONOCYTE", "setting": "72 h, time 3 day", "result": 6.33, "unit": "%"}, {"measurement": "NEUTROPHIL", "setting": "72 h, time 3 day", "result": 48.67, "unit": "%"}, {"measurement": "NUCLEATED RED BLOOD CELLS", "setting": "72 h, time 3 day", "result": "0 /100WBC"}, {"measurement": "PLATELET COUNT", "setting": "72 h, time 3 day", "result": 1131, "unit": "x10E3/uL"}, {"measurement": "ALANINE AMINOTRANSFERASE", "setting": "[1]", "result": 18, "unit": "u/L"}, {"measurement": "ALBUMIN", "setting": "[1]", "result": 3.07, "unit": "G/DL"}, {"measurement": "ALKALINE PHOSPHATASE", "setting": "[1]", "result": 189.33, "unit": "u/L"}, {"measurement": "ASPARTATE AMINOTRANSFERASE", "setting": "[1]", "result": 63, "unit": "u/L"}, {"measurement": "BLOOD UREA NITROGEN", "setting": "[1]", "result": 17.33, "unit": "mg/dL"}, {"measurement": "CARBON DIOXIDE", "setting": "[1]", "result": 28.33, "unit": "mmol/L"}, {"measurement": "CHLORIDE", "setting": "[1]", "result": 97.33, "unit": "MEQ/L"}, {"measurement": "CHOLESTEROL", "setting": "[1]", "result": 61, "unit": "mg/dL"}, {"measurement": "CREATININE", "setting": "[1]", "result": 0.15, "unit": "mg/dL"}, {"measurement": "GLUCOSE", "setting": "[1]", "result": 131.67, "unit": "mg/dL"}, {"measurement": "LACTATE DEHYDROGENASE", "setting": "[1]", "result": 149.67, "unit": "u/L"}, {"measurement": "LIPASE", "setting": "[1]", "result": 8.33, "unit": "u/L"}, {"measurement": "PHOSPHORUS", "setting": "[1]", "result": 10.43, "unit": "mg/dL"}, {"measurement": "POTASSIUM", "setting": "[1]", "result": 4.72, "unit": "MEQ/L"}, {"measurement": "SODIUM", "setting": "[1]", "result": 144.73, "unit": "MEQ/L"}, {"measurement": "TOTAL BILIRUBIN", "setting": "[1]", "result": 0.1, "unit": "mg/dL"}, {"measurement": "TOTAL PROTEIN", "setting": "[1]", "result": 6.4, "unit": "G/DL"}, {"measurement": "URIC ACID", "setting": "[1]", "result": 1.37, "unit": "mg/dL"}, {"measurement": "ABSOLUTE BASOPHIL", "setting": "96 h, time 4 day", "result": 0, "unit": "CELLS/uL"}, {"measurement": "ABSOLUTE EOSINOPHIL", "setting": "96 h, time 4 day", "result": 0, "unit": "CELLS/uL"}, {"measurement": "ABSOLUTE LYMPHOCYTE", "setting": "96 h, time 4 day", "result": 3924, "unit": "CELLS/uL"}, {"measurement": "ABSOLUTE MONOCYTE", "setting": "96 h, time 4 day", "result": 981, "unit": "CELLS/uL"}, {"measurement": "ABSOLUTE SEGMENTED NEUTROPHIL", "setting": "96 h, time 4 day", "result": 16695, "unit": "CELLS/uL"}, {"measurement": "BASOPHIL", "setting": "96 h, time 4 day", "result": 0, "unit": "%"}, {"measurement": "EOSINOPHIL", "setting": "96 h, time 4 day", "result": 0, "unit": "%"}, {"measurement": "ERYTHROCYTE COUNT", "setting": "96 h, time 4 day", "result": 6.21, "unit": "x10E6/uL"}, {"measurement": "HEMATOCRIT", "setting": "96 h, time 4 day", "result": 36.1, "unit": "%"}, {"measurement": "HEMOGLOBIN", "setting": "96 h, time 4 day", "result": 13.4, "unit": "G/DL"}, {"measurement": "LEUKOCYTE COUNT", "setting": "96 h, time 4 day", "result": 21.6, "unit": "x10E3/uL"}, {"measurement": "LYMPHOCYTE", "setting": "96 h, time 4 day", "result": 18, "unit": "%"}, {"measurement": "MEAN CORPUSCULAR HEMOGLOBIN", "setting": "96 h, time 4 day", "result": 21.6, "unit": "pg"}, {"measurement": "MEAN CORPUSCULAR HEMOGLOBIN CONCENTRATION", "setting": "96 h, time 4 day", "result": 37.15, "unit": "G/DL"}, {"measurement": "MONOCYTE", "setting": "96 h, time 4 day", "result": 4.5, "unit": "%"}, {"measurement": "NEUTROPHIL", "setting": "96 h, time 4 day", "result": 77.5, "unit": "%"}, {"measurement": "NUCLEATED RED BLOOD CELLS", "setting": "96 h, time 4 day", "result": "0 /100WBC"}, {"measurement": "PLATELET COUNT", "setting": "96 h, time 4 day", "result": 1458.5, "unit": "x10E3/uL"}, {"measurement": "ALANINE AMINOTRANSFERASE", "setting": "[2]", "result": 19, "unit": "u/L"}, {"measurement": "ALBUMIN", "setting": "[2]", "result": 2.45, "unit": "G/DL"}, {"measurement": "ALKALINE PHOSPHATASE", "setting": "[2]", "result": 153.5, "unit": "u/L"}, {"measurement": "ASPARTATE AMINOTRANSFERASE", "setting": "[2]", "result": 51.5, "unit": "u/L"}, {"measurement": "BLOOD UREA NITROGEN", "setting": "[2]", "result": 24, "unit": "mg/dL"}, {"measurement": "CARBON DIOXIDE", "setting": "[2]", "result": 32, "unit": "mmol/L"}, {"measurement": "CHLORIDE", "setting": "[2]", "result": 96.5, "unit": "MEQ/L"}, {"measurement": "CHOLESTEROL", "setting": "[2]", "result": 50.5, "unit": "mg/dL"}, {"measurement": "CREATININE", "setting": "[2]", "result": 0.16, "unit": "mg/dL"}, {"measurement": "GLUCOSE", "setting": "[2]", "result": 112.5, "unit": "mg/dL"}, {"measurement": "LACTATE DEHYDROGENASE", "setting": "[2]", "result": 173, "unit": "u/L"}, {"measurement": "LIPASE", "setting": "[2]", "result": 7.5, "unit": "u/L"}, {"measurement": "PHOSPHORUS", "setting": "[2]", "result": 10.1, "unit": "mg/dL"}, {"measurement": "POTASSIUM", "setting": "[2]", "result": 5.21, "unit": "MEQ/L"}, {"measurement": "SODIUM", "setting": "[2]", "result": 143.95, "unit": "MEQ/L"}, {"measurement": "TOTAL BILIRUBIN", "setting": "[2]", "result": 0.15, "unit": "mg/dL"}, {"measurement": "TOTAL PROTEIN", "setting": "[2]", "result": 6, "unit": "G/DL"}]}
